Columns and labels:
mTOR1/4E-BP1/AKT1 axis = experiment: XL388-induced mTOR inhibition during hMSCs-osteoblast differentiation (qPCR, western blot); format: cell-based, human
Procedure: hMSCs were differentiated into osteoblasts with/without […] XL388 or 0.1 μg ml^−1 HKUOT-S2 treatments for 7 days with medium replenishments every 3 days. The collected cell pellets were processed for qPCR and western blot analyses to establish the mechanism by which HKUOT-S2 promotes osteogenesis and new bone formation. The lists of all the genes and corresponding primer pairs as well as primary and secondary antibodies used for qPCR and western blot analyses are listed in Tables 6, 7 and 8.

hMSCs = hMSCs to osteoblast differentiation; format: cell-based, human
Procedure: The hMSCs and MC3T3-1E cell lines were seeded at 2.5×10^4 cells/well and 2.5×10^3 cells/well of 6-well plate respectively, containing 2 ml of normal cell culture media. The cell culture media were then replaced with osteogenic media containing 100 nM Dex, 10 mM β-Gly and 0.28 mM Asc with or without the HKUOT-S2 protein. The cells were maintained in the osteogenic media for 14 days with media replacement every 3 days. The nondifferentiated cells maintained in the normal cell culture media were used as controls. The cell pellets were then collected and processed for osteogenic gene expression analysis by qPCR at the experimental endpoints.
High Quality Total RNAs, with OD260/OD280 Between 1.98-2.00, were extracted from the in vitro experimented cell lines and the tissues harvested from the in vivo experiments using RNAiso plus reagent (Cat #9109) according to the manufacturer's protocol. The quality and quantity of the extracted RNAs were determined using the NanoDrop One (C) UV-VIS micro-volume spectrophotometer (Thermo Scientific). Equal amount of RNAs across the experimental groups were reverse transcribed into complementary DNA (cDNA) using the PrimeScript™ RT reagent Kit (cat #RR037A, Takara) and Peltier Thermal Cycler (Cat #PTC-100, MJ Research) according to the manufacturers' instructions. Specific primer pairs, equal amount of cDNA for the various experimental groups and the PowerUp™ SYBR™ Green Master Mix (Cat #A25742, Thermo Scientific) were used to prepare the qPCR reaction mix. 10 μl of the qPCR reaction mix of the control and HKUOT-S2 treatment groups, loaded into 96-well plate (0.2 ml) were used evaluate the HKUOT-S2-induced gene expressions in the cell lines from the in vitro and the harvested tissues from the in vivo experiments using the QuantStudio 5 real-time PCR system (Thermo Scientific). The HKUOT-S2-induced differentially gene expression fold changes were calculated by 2^−ΔΔCt method after housekeeping gene normalization.

[1] = tested on: ovariectomized (OVX) mice; experiment: OVX-induced osteoporosis, femur μCT; format: in vivo, mouse
Procedure: A total of 32 female C57BL/6J mice at the age of 8-12 weeks old and weighing between 22-25 g were used in this study. All mice underwent dorsoventral surgical operation under anesthesia. The sham control underwent surgery without ovary removal. The ovaries were completely removed from the anterior uterine horns in the OVX group. There were four groups, namely sham control (n=8), OVX control (n=8), OVX+30 μg kg^−1 estrogen (E2, n=8), and OVX+2.18 mg kg^−1 HKUOT-S2 (n=8) treatment groups. The sham and OVX control mice were given subcutaneous of 200 μl of 1XBP. The OVX+E2 and OVX+HKUOT-S2 groups were given 200 μl E2 and HKUOT-S2 via subcutaneous and IP injections respectively. All treatments started 4 hrs after the surgery and thrice per week for 4 weeks post-surgery. Micro CT (μCT) scans were taken on day zero and biweekly post-surgery. At the experimental endpoint, all the mice in the groups were sacrificed under overdose of anesthesia, the bone tissues harvested and processed for bone histomorphometry and immunohistochemical analyses.

[2] = 250 nM XL388 alone, western blot
[3] = 0.1 μg/ml HKUOT-S2, 0.01 μg/ml SEQ ID NO: 83
[4] = femur of OVX mice, 2.18 mg/Kg HKUOT-S2, 0.5 mg/Kg SEQ ID NO: 83, n=3

Cc1c(C(=O)N2CCOc3ccc(-c4ccc(N)nc4)cc3C2)ccc(S(C)(=O)=O)c1F [XL388]
4E-BP1 expression (mTOR1/4E-BP1/AKT1 axis; 125 nM XL388 alone, qPCR): significantly suppressed
AKT1 expression (mTOR1/4E-BP1/AKT1 axis; 125 nM XL388 alone, qPCR): significantly suppressed
MTOR1 expression (mTOR1/4E-BP1/AKT1 axis; 125 nM XL388 alone, qPCR): significantly suppressed
RUNX2 expression (mTOR1/4E-BP1/AKT1 axis; 125 nM XL388 alone, qPCR): significantly suppressed
S6K1 expression (mTOR1/4E-BP1/AKT1 axis; 125 nM XL388 alone, qPCR): significantly suppressed
phosphorylation of 4E-BP1 (mTOR1/4E-BP1/AKT1 axis; [2]): prevented
phosphorylation of MTOR1 (mTOR1/4E-BP1/AKT1 axis; [2]): prevented
ALP expression (mTOR1/4E-BP1/AKT1 axis; XL388-induced mTOR inhibition): no effects

TKSSLPGQTK (HKUOT-S2 peptide) [SEQ ID NO: 83]
osteogenic effects compared to the HKUOT-S2 treatment (hMSCs): robust
ALP activities (hMSCs; [3]): significantly increased
ALP mRNA expression (hMSCs; [3]): increasing
oestrogen receptor α (ERα) mRNA expression (hMSCs; [3]): increasing
osteoblast biomineralization (hMSCs; [3]): significantly increased
COL-1A expression (hMSCs; 0.01μ gml^−1): increasing
osteoporosis suppression effects compared with the 2.18 mg/Kg HKUOT-S2 treatment group ([1]; 0.5 mg/Kg SEQ ID NO: 83, OVX mice): stronger
bone surface area to bone volume ratio (BS/BV) [1, 4]: decreased
bone surface area to tissue volume (BS/TV) ratio [1, 4]: significantly increasing
bone volume (BV/TV) [1, 4]: significantly increasing
trabecular number (Tb. N) [1, 4]: significantly increasing
trabecular separation (Tb. Sp) [1, 4]: decreased
trabecular thickness (Tb.th) [1, 4]: significantly increasing
